Measurements from patent US8071625B2, “Certain chemical entities, compositions, and methods” (Cytokinetics, Inc., priority 2006, dated 2011).

Target: T1, crosslinked smooth muscle actomyosin (chicken gizzard smooth muscle myosin subfragment-1 crosslinked to cardiac or skeletal actin) (Gallus gallus, UniProt P10587)
T1 construct: chicken gizzard smooth muscle myosin subfragment-1; from tissue; host or cells: chicken gizzard
Experiment: Lead optimization pyruvate kinase/horseradish peroxidase/pyruvate oxidase-coupled ATPase assay (compound dose response)
Format: biochemical
Details: read-out: IC50 Arithmetic Mean
Procedure, shortened: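 The ATPase used chicken gizzard smooth muscle myosin S1 chemically crosslinked to cardiac or skeletal actin, titrated to a set hydrolysis rate. It was coupled via pyruvate kinase/pyruvate oxidase/HRP in 12 mM K-PIPES pH 7.00 (22 °C) with 0.15 mM ATP, 2 mM MgCl2, 100 mM KCl and 0.1 mM Amplex Red. Fluorescence was read at ex 480/em 615 nm, and IC50 came from a 4-parameter fit.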

SMILES | IC50 [nM]
COc1cccc(NC(=O)OCC2(C(=O)NCc3ccccc3Cl)CCOCC2)c1 [N-[(2-chlorophenyl)methyl](4-{[N-(3-methoxyphenyl)carbamoyloxy]methyl}(2H-3,4,5,6-tetrahydropyran-4-yl))carboxamide] | 19000
CCc1ccc(N(C)C(=O)OCC2(C(=O)NCc3ccccc3Cl)CCOCC2)cc1 [N-[(2-chlorophenyl)methyl](4-{[N-(4-ethylphenyl)-N-methylcarbamoyloxy]methyl}(2H-3,4,5,6-tetrahydropyran-4-yl))carboxamide] | 7630
CCc1ccc(NC(=O)OCC2(C(=O)NCc3ccccc3Cl)CCOCC2)cc1 [N-[(2-chlorophenyl)methyl](4-{[N-(4-ethylphenyl)carbamoyloxy]methyl}(2H-3,4,5,6-tetrahydropyran-4-yl))carboxamide] | 197
CCc1ccc(NC(=O)OCC2(C(=O)NCc3ccccc3Cl)CCNCC2)cc1 [N-[(2-chlorophenyl)methyl](4-{[N-(4-ethylphenyl)carbamoyloxy]methyl}(4-piperidyl))carboxamide] | 1660
CCc1ccc(NC(=O)OCC2(C(=O)NCc3ccccc3Cl)CCN(C(=O)c3ccccn3)CC2)cc1 [N-[(2-chlorophenyl)methyl](4-{[N-(4-ethylphenyl)carbamoyloxy]methyl}-1-(2-pyridylcarbonyl)(4-piperidyl))carboxamide] | 757
CCc1ccc(NC(=O)OCC2(C(=O)NCc3ccccc3Cl)CCN(C(=O)c3cccnc3)CC2)cc1 [N-[(2-chlorophenyl)methyl](4-{[N-(4-ethylphenyl)carbamoyloxy]methyl}-1-(3-pyridylcarbonyl)(4-piperidyl))carboxamide] | 695
CCc1ccc(NC(=O)OCC2(C(=O)NCc3ccccc3Cl)CCN(C(=O)C3CCNCC3)CC2)cc1 [N-[(2-chlorophenyl)methyl](4-{[N-(4-ethylphenyl)carbamoyloxy]methyl}-1-(4-piperidylcarbonyl)(4-piperidyl))carboxamide] | 808
CCc1ccc(NC(=O)OCC2(C(=O)NCc3ccccc3Cl)CCN(Cc3ccccc3)CC2)cc1 [N-[(2-chlorophenyl)methyl](4-{[N-(4-ethylphenyl)carbamoyloxy]methyl}-1-benzyl(4-piperidyl))carboxamide] | 14400
CCc1ccc(NC(=O)OCC2(C(=O)NCc3ccccc3Cl)CCN(C(=O)c3ccc(C(=O)c4ccccc4)cc3)CC2)cc1 [N-[(2-chlorophenyl)methyl](4-{[N-(4-ethylphenyl)carbamoyloxy]methyl}-1-{[4-(phenylcarbonyl)phenyl]carbonyl}(4-piperidyl))carboxamide] | 4950
Cc1ccc(NC(=O)OCC2(C(=O)NCc3ccccc3Cl)CCOCC2)cc1 [N-[(2-chlorophenyl)methyl](4-{[N-(4-methylphenyl)carbamoyloxy]methyl}(2H-3,4,5,6-tetrahydropyran-4-yl))carboxamide] | 697
Cc1cccc(F)c1NC(=O)OCC1(C(=O)NCc2ccccc2Cl)CCOCC1 [N-[(2-chlorophenyl)methyl](4-{[N-(6-fluoro-2-methylphenyl)carbamoyloxy]methyl}(2H-3,4,5,6-tetrahydropyran-4-yl))carboxamide] | 14200
CCc1ccc(NC(=O)OCC2(C(=O)NCc3ccccc3Cl)CCCCC2)cc1 [N-[(2-chlorophenyl)methyl]({[N-(4-ethylphenyl)carbamoyloxy]methyl}cyclohexyl)carboxamide] | 238
CCc1ccc(NC(=O)NC(C)(C)C(=O)NCc2ccccc2Cl)cc1 [N-[(2-chlorophenyl)methyl]-2-{[(4-ethylphenyl)amino]carbonylamino}-2-methylpropanamide] | 13600
CCc1ccc(NC(=O)OCC(C)(C)C(=O)NCc2ccccc2Cl)cc1 [N-[(2-chlorophenyl)methyl]-3-[N-(4-ethylphenyl)carbamoyloxy]-2,2-dimethylpropanamide] | 2510
CCc1ccc(NC(=O)OCC(C)(NC(=O)CO)C(=O)NCc2ccccc2Cl)cc1 (stereo not drawn) [N-[(2-chlorophenyl)methyl]-3-[N-(4-ethylphenyl)carbamoyloxy]-2-(2-hydroxyacetylamino)-2-methylpropanamide] | 9180
CCc1ccc(NC(=O)OCC(C)(NC(=O)OC)C(=O)NCc2ccccc2Cl)cc1 (stereo not drawn) [N-[(2-chlorophenyl)methyl]-3-[N-(4-ethylphenyl)carbamoyloxy]-2-(methoxycarbonylamino)-2-methylpropanamide] | 4090
CCc1ccc(NC(=O)NCC(C)(C)C(=O)NCc2ccccc2Cl)cc1 [N-[(2-chlorophenyl)methyl]-3-{[(4-ethylphenyl)amino]carbonylamino}-2,2-dimethylpropanamide] | 8820
CCc1ccc(NC(=O)OCCC(C)(C)C(=O)NCc2ccccc2Cl)cc1 [N-[(2-chlorophenyl)methyl]-4-[N-(4-ethylphenyl)carbamoyloxy]-2,2-dimethylbutanamide] | 235
CCc1ccc(NC(=O)OCCCC(=O)NCc2ccccc2Cl)cc1 [N-[(2-chlorophenyl)methyl]-4-[N-(4-ethylphenyl)carbamoyloxy]butanamide] | 3430
CCc1ccc(NC(=O)NCCC(C)(C)C(=O)NCc2ccccc2Cl)cc1 [N-[(2-chlorophenyl)methyl]-4-{[N-(4-ethylphenyl)carbamoyl]amino}-2,2-dimethylbutanamide] | 4730
CCc1ccc(NC(=O)CCC(C)(C)C(=O)NCc2ccccc2Cl)cc1 [N-[(2-chlorophenyl)methyl]-N′-(4-ethylphenyl)-2,2-dimethylpentane-1,5-diamide] | 18500

Next, values leading:

IC50 [nM] | SMILES
173 | CCc1ccc(NC(=O)OCC2(C(=O)NCc3ccccc3Cl)CCN(C(=O)CO)CC2)cc1 [N-[(2-chlorophenyl)methyl](4-{[N-(4-ethylphenyl)carbamoyloxy]methyl}-1-(2-hydroxyacetyl)(4-piperidyl))carboxamide]
4040 | CCc1ccc(NC(=O)OCC2(C(=O)NCc3ccccc3Cl)CCN(CCO)CC2)cc1 [N-[(2-chlorophenyl)methyl](4-{[N-(4-ethylphenyl)carbamoyloxy]methyl}-1-(2-hydroxyethyl)(4-piperidyl))carboxamide]
486 | CCc1ccc(NC(=O)OCC2(C(=O)NCc3ccccc3Cl)CCN(C(=O)COC)CC2)cc1 [N-[(2-chlorophenyl)methyl](4-{[N-(4-ethylphenyl)carbamoyloxy]methyl}-1-(2-methoxyacetyl)(4-piperidyl))carboxamide]
606 | CCc1ccc(NC(=O)OCC2(C(=O)NCc3ccccc3Cl)CCN(C(=O)CCOC)CC2)cc1 [N-[(2-chlorophenyl)methyl](4-{[N-(4-ethylphenyl)carbamoyloxy]methyl}-1-(3-methoxypropanoyl)(4-piperidyl))carboxamide]
492 | CCc1ccc(NC(=O)OCC2(C(=O)NCc3ccccc3Cl)CCN(C(=O)CCCO)CC2)cc1 [N-[(2-chlorophenyl)methyl](4-{[N-(4-ethylphenyl)carbamoyloxy]methyl}-1-(4-hydroxybutanoyl)(4-piperidyl))carboxamide]
302 | CCc1ccc(NC(=O)OCC2(C(=O)NCc3ccccc3Cl)CCN(C(=O)NC)CC2)cc1 [N-[(2-chlorophenyl)methyl](4-{[N-(4-ethylphenyl)carbamoyloxy]methyl}-1-(N-methylcarbamoyl)(4-piperidyl))carboxamide]
394 | CCc1ccc(NC(=O)OCC2(C(=O)NCc3ccccc3Cl)CCN(C(=O)c3ncc[nH]3)CC2)cc1 [N-[(2-chlorophenyl)methyl](4-{[N-(4-ethylphenyl)carbamoyloxy]methyl}-1-(imidazol-2-ylcarbonyl)(4-piperidyl))carboxamide]
496 | CCc1ccc(NC(=O)OCC2(C(=O)NCc3ccccc3Cl)CCN(S(C)(=O)=O)CC2)cc1 [N-[(2-chlorophenyl)methyl](4-{[N-(4-ethylphenyl)carbamoyloxy]methyl}-1-(methylsulfonyl)(4-piperidyl))carboxamide]
515 | CCc1ccc(NC(=O)OCC2(C(=O)NCc3ccccc3Cl)CCN(C(=O)C3COCCN3)CC2)cc1 (stereo not drawn) [N-[(2-chlorophenyl)methyl](4-{[N-(4-ethylphenyl)carbamoyloxy]methyl}-1-(morpholin-3-ylcarbonyl)(4-piperidyl))carboxamide]
412 | CCc1ccc(NC(=O)OCC2(C(=O)NCc3ccccc3Cl)CCN(C(=O)c3ccccc3)CC2)cc1 [N-[(2-chlorophenyl)methyl](4-{[N-(4-ethylphenyl)carbamoyloxy]methyl}-1-(phenylcarbonyl)(4-piperidyl))carboxamide]
213 | CCc1ccc(NC(=O)OCC2(C(=O)NCc3ccccc3Cl)CCN(C(=O)CNC)CC2)cc1 [N-[(2-chlorophenyl)methyl](4-{[N-(4-ethylphenyl)carbamoyloxy]methyl}-1-[2-(methylamino)acetyl](4-piperidyl))carboxamide]
1780 | CCc1ccc(NC(=O)OCC2(C(=O)NCc3ccccc3Cl)CCN(C(=O)C(C)NC)CC2)cc1 (stereo not drawn) [N-[(2-chlorophenyl)methyl](4-{[N-(4-ethylphenyl)carbamoyloxy]methyl}-1-[2-(methylamino)propanoyl](4-piperidyl))carboxamide]
275 | CCc1ccc(NC(=O)OCC2(C(=O)NCc3ccccc3Cl)CCN(C(=O)C(C)(CO)CO)CC2)cc1 [N-[(2-chlorophenyl)methyl](4-{[N-(4-ethylphenyl)carbamoyloxy]methyl}-1-[3-hydroxy-2-(hydroxymethyl)-2-methylpropanoyl](4-piperidyl))carboxamide]
4930 | CCc1ccc(NC(=O)OCC2(C(=O)NCc3ccccc3Cl)CCN(C)CC2)cc1 [N-[(2-chlorophenyl)methyl](4-{[N-(4-ethylphenyl)carbamoyloxy]methyl}-1-methyl(4-piperidyl))carboxamide]
3050 | CCc1ccc(NC(=O)OCC2(C(=O)NCc3ccccc3Cl)CC2)cc1 [N-[(2-chlorophenyl)methyl]({[N-(4-ethylphenyl)carbamoyloxy]methyl}cyclopropyl)carboxamide]
